Data taken from patent publication US10240255B2 (priority 2007, dated 2019).

Columns and labels:
[1] = tested on: BioMAP® systems (primary human cells); type: cell-based
[2] = tested on: endothelial cells and PBMC

CO/C(=C/C(N)=O)[C@H](C)[C@H](/C=C/c1csc(-c2csc([C@@H](C)/C=C/C=C/C(C)C)n2)n1)OC [Myxothiazol]
IL1 level [1]: upregulation
MCP1 level [1]: inhibition
T cell activation [1]: inhibition
VCAM level [1]: upregulation
proliferation [1]: inhibition

COC[C@H]1OC(=O)c2coc3c2[C@@]1(C)C1=C(C3=O)[C@@H]2CCC(=O)[C@@]2(C)C[C@H]1OC(C)=O [Wortmannin]
cytotoxicity [2]: not cytotoxic

C=C(CC)C(=O)c1ccc(OCC(=O)O)c(Cl)c1Cl [ethacrynic acid]
E-selectin level ([2]; 10 μM): inhibition
HLA-DR level ([2]; 10 μM): inhibition
PBMC proliferation ([2]; 10 μM): inhibition
T cell activation ([2]; 10 μM): inhibition
VCAM level ([2]; 10 μM): inhibition
monocyte activation ([2]; 10 μM): inhibition
